Data taken from paper PMC6348446 (Journal of Medicinal Chemistry, 2018).

Experiments:
BRD9 = molecular target: T1, BRD9 (Homo sapiens, UniProt Q9H8M2); test: Western blot of BRD9 levels in RI-1 cells after compound treatment; assay type: cell-based; settings: for BRD9 degradation: 4 h
T1 construct: Western blot analysis of BRD9 and BRD7 levels after treatment of HeLa cells; endogenous in cells; host or cells: HeLa
T1 sequence (Q9H8M2 1-597): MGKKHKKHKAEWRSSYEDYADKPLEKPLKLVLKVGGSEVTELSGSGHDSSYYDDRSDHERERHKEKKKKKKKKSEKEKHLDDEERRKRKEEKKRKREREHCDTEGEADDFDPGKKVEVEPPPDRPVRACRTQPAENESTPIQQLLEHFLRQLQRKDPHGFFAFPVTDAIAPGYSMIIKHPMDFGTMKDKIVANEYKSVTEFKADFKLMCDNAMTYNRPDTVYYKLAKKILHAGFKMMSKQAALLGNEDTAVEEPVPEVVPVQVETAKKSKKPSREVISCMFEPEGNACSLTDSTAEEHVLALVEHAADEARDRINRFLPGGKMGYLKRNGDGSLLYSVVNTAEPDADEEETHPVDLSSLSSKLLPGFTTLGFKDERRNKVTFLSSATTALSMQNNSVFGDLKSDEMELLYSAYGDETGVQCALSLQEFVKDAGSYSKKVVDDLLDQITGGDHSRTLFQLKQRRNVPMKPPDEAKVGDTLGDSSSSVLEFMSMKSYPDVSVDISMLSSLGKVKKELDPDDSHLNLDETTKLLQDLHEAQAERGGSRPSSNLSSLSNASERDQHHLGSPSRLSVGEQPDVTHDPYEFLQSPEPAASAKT

[1] = CHI LogD determination (reverse-phase HPLC); assay type: physicochemical; settings: reversed-phase HPLC (ACE Excel 3 SuperC18 column), pH 7.4; read-out: CHI LogD (pH7.4)
Protocol: removed from both acceptor and donor compartments and mixed with acetonitrile (80 µL) containing an internal standard. The samples were centrifuged (10 min, 5 °C, 3270 g) to sediment precipitated protein and sealed prior to UPLC-MS/MS analysis using a Xevo TQ-S Micro (Waters Corp, USA). Pe was calculated as shown in the below equation: […]
CA(t) = peak area of compound present in acceptor well at time t = 18000 s Cequi = [CD(t) x VD + CA(t) x VA] / (VD + VA)
VA = acceptor well volume
CD(t) = peak area of compound present in donor well at time t = 18000 s Recovery of compound from donor and acceptor wells was calculated and data was only accepted when recovery exceeded 70%.
Using a fast gradient, reverse-phase HPLC method to determine the chromatographic hydrophobicity index (CHI) was determined as described by Camurri and Zaramella (ref. 3) and Valko et al. (ref. 4). Briefly, by plotting the retention time of a set of reference […]
compounds against known CHI values. The CHI value of test compounds was then calculated according to their retention time.
Test compounds were prepared as 0.25 mM solutions in 50:50 acetonitrile:water and analysed by reversed-phase HPLC-UV (wavelength 254 nm) using a ACE Excel 3 SuperC18, 3 µm, 50 x 2.1 mm column with a gradient of aqueous phase (10 mM ammonium acetate, pH 7.4) and mobile phase (acetonitrile).
Intrinsic clearance (Cli) experiments
Test compound (0.5 µM) was incubated with female CD1 mouse or human (mixed gender) liver microsomes (Xenotech LLCTM; 0.5 mg/mL 50mM potassium phosphate buffer, pH7.4) and the reaction initiated with addition of excess NADPH (8 mg/mL 50 mM potassium phosphate buffer, pH7.4). Immediately, at time zero, then at 3, 6, 9, 15 and 30 minutes an aliquot (50 µL) of the incubation mixture was removed and mixed with acetonitrile (100 µL) to stop the reaction. Internal standard was added to all samples, the samples centrifuged to sediment precipitated protein and the plates then sealed prior to […] analysis using […]
a Xevo TQ-S Micro (Waters corporation, USA).
XLfit (IDBS, UK) was used to calculate the exponential decay and consequently the rate constant (k) from the ratio of peak area of test compound to internal standard at each timepoint. The rate of intrinsic clearance (CLi) of each test compound was then calculated using the following calculation:
CLi(mL/min/g liver) = k x V x Microsomal protein yield
Where V (mL/mg protein) is the incubation volume/mg protein added and microsomal protein yield is taken as 52.5 mg protein/ g liver. Verapamil (0.5 µM) was used as a positive control to confirm acceptable assay performance.

Row | SMILES | remaining activity at 1 µM (BRD9; 2 h, Table 3, % of total protein remaining relative to 0.1% DMSO vehicle, 1 μM compound, RI-1) [%] | decrease of BRD9 level (BRD9; RI-1 cells, 100 nM, 30 min) | BRD9 degradation (BRD9; RI-1 cells, 100 nM) | concentration window of maximal protein degradation of BRD9 (BRD9; RI-1 cells, 2 and 8 h) [nM] | chromatographic logD [1]
1 | COc1cc(-c2cn(C)c(=O)c3cnccc23)cc(OC)c1CN1CCN(CCCCCOc2cc(-c3scnc3C)ccc2CNC(=O)[C@@H]2C[C@@H](O)CN2C(=O)[C@@H](NC(=O)C2(F)CC2)C(C)(C)C)CC1 [Compound 51, (2S,4R)-N-(2-((5-(4-(2,6-Dimethoxy-4-(2-methyl-1-oxo-1,2-dihydro-2,7-naphthyridin-4-yl)benzyl)piperazin-1-yl)pentyl)oxy)-4-(4-methylthiazol-5-yl)benzyl)-1-((S)-2-(1-fluorocyclopropane-1-carboxamido)-3,3-dimethylbutanoyl)-4-hydroxypyrrolidine-2-carboxamide] | 100 | more than 50% | more than 90% | 10 to 100 | 2.3
2 | COc1cc(-c2cn(C)c(=O)c3cnccc23)cc(OC)c1CN1CCN(CCOCCOCCOc2cc(-c3scnc3C)ccc2CNC(=O)[C@@H]2C[C@@H](O)CN2C(=O)[C@@H](NC(=O)C2(F)CC2)C(C)(C)C)CC1 [Compound 26, (2S,4R)-N-(2-(2-(2-(2-(4-(2,6-Dimethoxy-4-(2-methyl-1-oxo-1,2-dihydro-2,7-naphthyridin-4-yl)benzyl)piperazin-1-yl)ethoxy)ethoxy)ethoxy)-4-(4-methylthiazol-5-yl)benzyl)-1-((S)-2-(1-fluorocyclopropane-1-carboxamido)-3,3-dimethylbutanoyl)-4-hydroxypyrrolidine-2-carboxamide] | – | – | – | – | 2
3 | COc1cc(-c2cn(C)c(=O)c3cnccc23)cc(OC)c1CN1CCN(CCCCCOc2cc(-c3scnc3C)ccc2CNC(=O)[C@@H]2C[C@H](O)CN2C(=O)[C@@H](NC(=O)C2(F)CC2)C(C)(C)C)CC1 [cisVZ185] | – | – | no degradation | – | 2.4
